Test results taken from patent publication US20060002932A1, “Methods and compositions for enhancement of immunity by in vivo depletion of immunosuppressive cell activity” (priority 2004, published 2006).
Several values for one entry are separate records, joined by “and”; a condition that tells them apart may be missing. Identical values can stand only once.

Columns and labels:
[1] = system: CD4^+CD25^− and CD4^+CD25^int cells; experiment: MTT cytotoxicity assay on CD25 negative/intermediate CD4+ T cells; format: cell-based, human
Experimental: After 48 hours of incubation, 20 μL MTT from a 5 mg/mL stock was added and incubation was continued for another 4 hours. The formazan crystals were solubilized by adding 100 μL isopropanol/0.1 M hydrochloric acid and incubating at 37° C. for 2 hours. The absorbance of the formazan product was measured on an enzyme-linked immunosorbent assay (ELISA) plate reader at 570 nm.
Interferon-γ and IL-4 ELISPOT analyses were performed using PBMC obtained prior to, during, and after vaccination. PBMC were cultured overnight in complete RPMI 1640 medium. CD4^+ and CD8^+ T cells were isolated from PBMC by negative depletion (Miltenyi). After blocking, 1×10^5 T cells and 1×10^4 RNA-transfected DC were added to each well of 96-well nitrocellulose plates (Multiscreen-IP, Millipore) precoated with 2 μg/ml Interferon-γ capture antibody (Endogen) or with IL-4 capture antibody (BD Biosciences Pharmingen). Plates were incubated for 20 hours at 37° C., and biotinylated Interferon-γ detection antibody (Endogen) or biotinylated IL-4 antibody (BD Biosciences Pharmingen) was added to each well. […] After washing, spots were counted using an automated ELISPOT reader (Carl Zeiss). […] Then, 50 μl of supernatant was harvested, and release of ^51Cr was measured with a scintillation counter. […] Incorporation of thymidine was determined using a liquid scintillation counter.

CD4^+/CD25^high Treg = experiment: Depletion of regulatory T cells in vivo (FACS of patient PBMC); set-up: species or system human; conditions: for Treg Depletion (%): single i.v. dose 18 μg/kg
Experimental: Four-color FACS analyses were performed using a Becton Dickinson FACSCalibur™. Fluorochrome-conjugated antibodies including anti-CD4 FITC, anti-CD45RO, anti-CD45RA (Caltag, Burlingame, Calif.); anti-CD25 PE (Becton Dickinson, California, CA) as well as isotypic control antibodies (Caltag, Burlingame, Calif.) were used for T-cell staining. Expression of GITR was analyzed by staining T cells with anti-GITR antibody (R&D Systems, Minneapolis, Minn.) followed by secondary goat anti-mouse antibody conjugated to APC. For determination of intracellular CTLA-4 expression, T cells were permeabilized with 0.5% saponin, fixed with 4% paraformaldehyde and then stained with biotinylated anti-CD152 (Becton Dickinson, California, CA) followed by APC-strepavidin (Becton Dickinson, California, CA). A total of 1×10^6 cells were suspended in staining buffer (PBS with 1% FCS, 2 mM EDTA, and 0.1% sodium azide) and incubated for 20 minutes at 4° C. with the antibody. Data were analyzed and presented using CELLQuest™ software. Sorting of CD4^+CD25^neg, CD4^+CD25^int and CD4^+CD25^high T cells was performed with a BD FACSAria™ cell sorter after antibody labeling. For detection of cytokine secretion, isolated CD4^+ T cells were activated for 16 hours in the presence of autologous mRNA-transfected DC. Cytokine secretion was measured using c Th1/Th2 cytokine cytometric bead arrays according to the manufacturer's protocol (BD Biosciences Pharmingen, San Diego, Calif.).
Using these methods, the degree of regulatory T cell depletion efficacy in the four subjects treated on the clinical protocol was determined.
Four-color FACS analyses were performed using the following antibodies: anti-CD4 FITC, anti-CD45RO, anti-CD45RA (Caltag), anti-CD25 PE (Becton Dickinson), anti-GITR (R&D Systems), and isotypic controls (Caltag). Sorting of CD4^+/CD25^neg, CD4^+/CD25^int and CD4^+/CD25^high T cells was performed using a Becton Dickinson FACSAria™ cell sorter after antibody labeling. For intracellular detection of FoxP3, cells were permeabilized with 30 μg/ml digitonin for 45 minutes at 4° C. Subsequently, cells were stained with anti-FoxP3 antibody (Abcam), and R-PE anti-goat IgG in the presence of 10 μg/ml digitonin for 30 minutes at 4° C. Following staining, cells were fixed and analyzed by FACS. For intracellular CTLA-4 detection, T cells were permeabilized, fixed, and stained with biotinylated anti-CD152 (Becton Dickinson) followed by APC-streptavidin (Becton Dickinson). A total of 1×10^6 cells was suspended in staining buffer (PBS with 1% FCS, 2 mM EDTA, and 0.1% sodium azide) and incubated for 20 minutes at 4° C. with the antibody.

denileukin diftitox [DAB389IL-2]
concentration above which cell death occurred in CD4^+CD25^− and CD4^+CD25^int cells [1]: higher than 10 nM
cell death of CD4^+CD25^− and CD4^+CD25^int cells ([1]; concentrations up to 10 nM): did not result in significant cell death
Treg Depletion (%) (CD4^+/CD25^high Treg; Example 1, per patient, four days after treatment): 74% and 88% and 37% and 77%
Treg Depletion (%) (CD4^+/CD25^high Treg; Example 1, per patient, four days after treatment, listed as DAB 389 IL-2): 74% and 88% and 37% and 77%
Treg Depletion (%) (CD4^+/CD25^high Treg; Example 2, per patient, 4 days after infusion): 74% and 72% and 68% and 76% and 57% and 26% and 35%
effect on CD25^neg/int subsets (CD4^+/CD25^high Treg; total CD25^pos cells after DAB389IL-2): CD25^neg/int subsets were unaffected
Treg restored in the peripheral T-cell pool (CD4^+/CD25^high Treg; within two months): approximately 75%
